Results published in ChEMBL document CHEMBL4680157, “Design, synthesis and biological evaluation of novel TRβ selective agonists sustained by ADME-toxicity analysis” (Eur J Med Chem, 2020).

What was measured:
HDAC6 = target: T1, HDAC6 (Homo sapiens, UniProt Q9UBN7); test: Inhibition of HDAC6 (unknown origin) at 10 uM relative to control
T1 sequence (Q9UBN7 whole entry): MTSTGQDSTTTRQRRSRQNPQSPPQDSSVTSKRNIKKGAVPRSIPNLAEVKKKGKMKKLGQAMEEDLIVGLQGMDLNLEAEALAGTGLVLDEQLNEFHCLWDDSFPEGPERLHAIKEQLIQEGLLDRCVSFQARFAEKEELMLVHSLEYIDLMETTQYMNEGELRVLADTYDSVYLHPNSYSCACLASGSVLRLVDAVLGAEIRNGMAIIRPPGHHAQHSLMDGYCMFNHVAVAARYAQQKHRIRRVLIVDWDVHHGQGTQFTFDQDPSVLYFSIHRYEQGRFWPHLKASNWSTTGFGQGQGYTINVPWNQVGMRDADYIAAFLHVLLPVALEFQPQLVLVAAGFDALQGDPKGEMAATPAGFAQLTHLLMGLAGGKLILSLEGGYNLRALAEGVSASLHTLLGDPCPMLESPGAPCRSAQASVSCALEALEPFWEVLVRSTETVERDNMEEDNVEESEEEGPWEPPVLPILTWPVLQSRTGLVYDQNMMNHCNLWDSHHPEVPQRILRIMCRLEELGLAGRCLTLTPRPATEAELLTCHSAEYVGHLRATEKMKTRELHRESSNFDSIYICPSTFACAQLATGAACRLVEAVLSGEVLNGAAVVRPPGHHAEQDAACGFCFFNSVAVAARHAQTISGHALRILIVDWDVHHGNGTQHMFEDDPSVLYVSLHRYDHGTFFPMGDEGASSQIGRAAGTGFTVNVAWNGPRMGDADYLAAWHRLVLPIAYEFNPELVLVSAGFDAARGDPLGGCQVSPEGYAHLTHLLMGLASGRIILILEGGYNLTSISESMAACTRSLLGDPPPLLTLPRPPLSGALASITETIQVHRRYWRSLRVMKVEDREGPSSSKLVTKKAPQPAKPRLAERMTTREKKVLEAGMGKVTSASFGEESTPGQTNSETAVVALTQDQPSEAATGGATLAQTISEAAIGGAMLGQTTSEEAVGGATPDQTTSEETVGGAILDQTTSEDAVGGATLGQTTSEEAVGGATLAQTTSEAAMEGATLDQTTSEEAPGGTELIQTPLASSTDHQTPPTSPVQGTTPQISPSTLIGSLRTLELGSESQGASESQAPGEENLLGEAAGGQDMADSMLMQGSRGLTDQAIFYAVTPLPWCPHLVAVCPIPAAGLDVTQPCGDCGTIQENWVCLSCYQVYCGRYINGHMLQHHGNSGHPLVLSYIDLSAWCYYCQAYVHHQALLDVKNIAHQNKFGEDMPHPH

[1] = Cytotoxicity against human MCF7 cells assessed as cell growth inhibition at 10 uM after 48 hrs relative to control; format: cell-based
HDAC4 = HDAC4 (Homo sapiens, UniProt P56524); test: Inhibition of HDAC4 (unknown origin) at 10 uM relative to control
[2] = Cytotoxicity against human hTERT cells assessed as cell growth inhibition at 10 uM after 48 hrs relative to control; format: cell-based, hTERT-BJ
CYP3A4 = CYP3A4 (Homo sapiens, UniProt P08684); test: Inhibition of CYP3A4 (unknown origin) at 10 uM relative to control; format: ADME
CYP3A4, sequence (P08684 whole entry): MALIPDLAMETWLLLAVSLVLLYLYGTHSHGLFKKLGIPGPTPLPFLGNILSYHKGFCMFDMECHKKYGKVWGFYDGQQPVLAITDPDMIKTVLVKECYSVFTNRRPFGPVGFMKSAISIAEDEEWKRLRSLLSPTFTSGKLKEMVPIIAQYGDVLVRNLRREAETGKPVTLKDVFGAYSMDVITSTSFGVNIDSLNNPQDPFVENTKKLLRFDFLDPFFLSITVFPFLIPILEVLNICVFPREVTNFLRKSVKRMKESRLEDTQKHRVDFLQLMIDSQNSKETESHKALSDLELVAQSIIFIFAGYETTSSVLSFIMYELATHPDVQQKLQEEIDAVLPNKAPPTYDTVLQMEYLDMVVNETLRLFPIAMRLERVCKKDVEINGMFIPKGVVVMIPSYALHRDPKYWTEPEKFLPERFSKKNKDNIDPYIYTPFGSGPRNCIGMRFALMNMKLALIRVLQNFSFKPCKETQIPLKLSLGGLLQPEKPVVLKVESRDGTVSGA

[3] = Cytotoxicity against human U2OS cells assessed as cell growth inhibition at 10 uM after 24 hrs relative to control; format: cell-based
[4] = Cytotoxicity against human MCF7 cells assessed as cell growth inhibition at 10 uM after 24 hrs relative to control; format: cell-based
[5] = Cytotoxicity against human HEK293 cells assessed as cell growth inhibition at 10 uM after 48 hrs relative to control; format: cell-based
CYP2D6 = CYP2D6 (Homo sapiens, UniProt P10635); test: Inhibition of CYP2D6 (unknown origin) at 10 uM relative to control; format: ADME
HDAC8 = target: T2, HDAC8 (Homo sapiens, UniProt Q9BY41); test: Inhibition of HDAC8 (unknown origin) at 10 uM relative to control
T2 sequence (Q9BY41 whole entry): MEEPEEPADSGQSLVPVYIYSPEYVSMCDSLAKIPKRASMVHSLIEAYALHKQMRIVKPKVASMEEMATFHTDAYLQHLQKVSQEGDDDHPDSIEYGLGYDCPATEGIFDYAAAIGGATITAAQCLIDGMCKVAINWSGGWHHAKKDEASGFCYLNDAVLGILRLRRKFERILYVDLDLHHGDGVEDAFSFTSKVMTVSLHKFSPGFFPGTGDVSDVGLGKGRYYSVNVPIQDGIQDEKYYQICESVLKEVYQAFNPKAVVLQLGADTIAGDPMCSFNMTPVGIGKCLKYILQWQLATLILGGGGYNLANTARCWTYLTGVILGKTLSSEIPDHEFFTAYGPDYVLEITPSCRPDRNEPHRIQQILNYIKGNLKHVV

[6] = Cytotoxicity against human hTERT cells assessed as cell growth inhibition at 10 uM after 24 hrs relative to control; format: cell-based, hTERT-BJ
SIRT7 = target: T3, SIRT7 (Homo sapiens, UniProt Q9NRC8); test: Inhibition of SIRT7 (unknown origin) at 10 uM relative to control
T3 sequence (Q9NRC8 whole entry): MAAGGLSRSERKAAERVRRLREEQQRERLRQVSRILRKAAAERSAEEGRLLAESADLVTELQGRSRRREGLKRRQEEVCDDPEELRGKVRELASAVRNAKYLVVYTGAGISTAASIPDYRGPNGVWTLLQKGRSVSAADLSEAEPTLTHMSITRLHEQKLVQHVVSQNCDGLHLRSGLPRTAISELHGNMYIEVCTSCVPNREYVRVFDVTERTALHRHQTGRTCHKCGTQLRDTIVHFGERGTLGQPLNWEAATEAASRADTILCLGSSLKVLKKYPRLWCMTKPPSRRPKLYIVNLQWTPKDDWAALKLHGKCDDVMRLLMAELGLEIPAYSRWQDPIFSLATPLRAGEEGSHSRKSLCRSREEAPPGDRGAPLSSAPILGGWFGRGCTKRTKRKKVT

HDAC9 = HDAC9 (Homo sapiens, UniProt Q9UKV0); test: Inhibition of HDAC9 (unknown origin) at 10 uM relative to control
HDAC9, sequence (Q9UKV0 whole entry): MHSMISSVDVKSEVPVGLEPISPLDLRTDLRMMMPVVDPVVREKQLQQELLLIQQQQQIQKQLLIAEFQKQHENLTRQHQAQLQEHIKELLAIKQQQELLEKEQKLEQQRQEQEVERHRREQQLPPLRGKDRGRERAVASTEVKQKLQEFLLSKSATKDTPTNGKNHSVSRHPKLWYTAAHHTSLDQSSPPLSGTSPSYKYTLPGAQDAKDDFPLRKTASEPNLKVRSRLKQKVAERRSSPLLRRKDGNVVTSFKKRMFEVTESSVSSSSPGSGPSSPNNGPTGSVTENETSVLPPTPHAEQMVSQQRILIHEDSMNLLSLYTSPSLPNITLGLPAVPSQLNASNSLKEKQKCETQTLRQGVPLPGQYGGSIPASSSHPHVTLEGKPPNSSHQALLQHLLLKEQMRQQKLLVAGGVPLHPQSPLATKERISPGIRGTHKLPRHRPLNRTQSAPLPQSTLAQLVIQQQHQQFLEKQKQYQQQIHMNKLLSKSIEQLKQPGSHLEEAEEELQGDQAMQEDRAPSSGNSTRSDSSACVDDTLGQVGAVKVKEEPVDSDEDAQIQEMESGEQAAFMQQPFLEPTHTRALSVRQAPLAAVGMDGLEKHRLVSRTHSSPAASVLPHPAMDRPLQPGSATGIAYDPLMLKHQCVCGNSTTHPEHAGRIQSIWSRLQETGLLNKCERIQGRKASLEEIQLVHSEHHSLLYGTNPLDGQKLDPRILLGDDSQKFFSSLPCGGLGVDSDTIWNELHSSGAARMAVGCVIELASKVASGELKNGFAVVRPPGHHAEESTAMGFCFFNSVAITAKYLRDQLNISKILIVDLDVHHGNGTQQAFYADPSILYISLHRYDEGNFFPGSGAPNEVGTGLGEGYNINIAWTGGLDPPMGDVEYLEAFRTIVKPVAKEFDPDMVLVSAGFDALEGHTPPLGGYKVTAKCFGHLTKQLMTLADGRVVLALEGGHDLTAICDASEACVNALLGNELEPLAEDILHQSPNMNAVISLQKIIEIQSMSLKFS

[7] = target: 3',5'-cyclic-AMP phosphodiesterase 4C (Homo sapiens) (UniProt Q08493); test: Inhibition of PDE4C1 (unknown origin) at 10 uM relative to control
3',5'-cyclic-AMP phosphodiesterase 4C (Homo sapiens), sequence (Q08493 whole entry): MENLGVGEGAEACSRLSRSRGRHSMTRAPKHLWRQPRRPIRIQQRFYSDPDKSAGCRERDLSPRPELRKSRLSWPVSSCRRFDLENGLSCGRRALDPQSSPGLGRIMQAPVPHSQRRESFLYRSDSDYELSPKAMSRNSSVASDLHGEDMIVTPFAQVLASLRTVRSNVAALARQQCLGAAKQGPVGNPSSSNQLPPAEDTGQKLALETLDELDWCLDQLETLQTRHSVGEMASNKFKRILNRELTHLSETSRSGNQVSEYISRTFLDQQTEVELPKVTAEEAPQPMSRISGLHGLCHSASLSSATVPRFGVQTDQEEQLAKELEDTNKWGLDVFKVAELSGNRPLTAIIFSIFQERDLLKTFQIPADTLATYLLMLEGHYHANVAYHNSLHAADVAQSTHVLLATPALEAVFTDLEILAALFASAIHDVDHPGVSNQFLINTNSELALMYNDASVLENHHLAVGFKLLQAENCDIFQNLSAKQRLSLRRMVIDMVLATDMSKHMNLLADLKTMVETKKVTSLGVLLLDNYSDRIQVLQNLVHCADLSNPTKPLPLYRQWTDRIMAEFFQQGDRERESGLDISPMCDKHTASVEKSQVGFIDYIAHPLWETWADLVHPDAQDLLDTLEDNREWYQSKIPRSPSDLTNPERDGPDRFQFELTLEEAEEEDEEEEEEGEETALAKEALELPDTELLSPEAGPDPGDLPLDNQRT

CYP2C9 = CYP2C9 (Homo sapiens, UniProt P11712); test: Inhibition of CYP2C9 (unknown origin) at 10 uM relative to control; format: ADME
CYP2C9, sequence (P11712 whole entry): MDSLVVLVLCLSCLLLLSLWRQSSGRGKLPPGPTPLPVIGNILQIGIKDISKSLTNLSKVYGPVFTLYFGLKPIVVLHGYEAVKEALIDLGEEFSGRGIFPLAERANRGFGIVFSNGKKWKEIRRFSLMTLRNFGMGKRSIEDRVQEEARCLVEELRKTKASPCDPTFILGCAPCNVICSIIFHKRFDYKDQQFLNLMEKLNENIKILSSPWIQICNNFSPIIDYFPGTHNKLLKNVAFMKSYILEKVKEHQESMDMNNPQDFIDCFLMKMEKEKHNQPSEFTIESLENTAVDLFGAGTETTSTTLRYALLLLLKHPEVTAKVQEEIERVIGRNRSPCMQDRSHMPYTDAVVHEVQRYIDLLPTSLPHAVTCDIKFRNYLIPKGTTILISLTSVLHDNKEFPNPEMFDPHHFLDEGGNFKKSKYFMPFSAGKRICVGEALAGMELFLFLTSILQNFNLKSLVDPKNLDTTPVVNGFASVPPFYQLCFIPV

CYP2C19 = CYP2C19 (Homo sapiens, UniProt P33261); test: Inhibition of CYP2C19 (unknown origin) at 10 uM relative to control; format: ADME
CYP2C19, sequence (P33261 whole entry): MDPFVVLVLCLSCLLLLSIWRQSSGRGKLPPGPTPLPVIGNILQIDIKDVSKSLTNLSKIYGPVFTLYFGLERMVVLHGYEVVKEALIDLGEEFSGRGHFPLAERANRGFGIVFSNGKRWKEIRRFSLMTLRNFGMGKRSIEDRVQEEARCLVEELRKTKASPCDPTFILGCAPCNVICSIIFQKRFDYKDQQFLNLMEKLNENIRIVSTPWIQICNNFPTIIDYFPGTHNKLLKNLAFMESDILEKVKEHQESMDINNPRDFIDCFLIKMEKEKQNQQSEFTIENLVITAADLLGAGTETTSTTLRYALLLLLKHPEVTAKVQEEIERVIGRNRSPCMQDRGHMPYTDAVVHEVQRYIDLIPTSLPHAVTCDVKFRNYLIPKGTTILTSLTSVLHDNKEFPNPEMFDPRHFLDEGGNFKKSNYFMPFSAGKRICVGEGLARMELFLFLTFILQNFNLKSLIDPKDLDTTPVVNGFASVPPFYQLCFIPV

[8] = Cytotoxicity against human HEK293 cells assessed as cell growth inhibition at 10 uM after 24 hrs relative to control; format: cell-based
CYP1A2 = target: T4, CYP1A2 (Homo sapiens, UniProt P05177); test: Inhibition of CYP1A2 (unknown origin) at 10 uM relative to control; format: ADME
T4 sequence (P05177 whole entry): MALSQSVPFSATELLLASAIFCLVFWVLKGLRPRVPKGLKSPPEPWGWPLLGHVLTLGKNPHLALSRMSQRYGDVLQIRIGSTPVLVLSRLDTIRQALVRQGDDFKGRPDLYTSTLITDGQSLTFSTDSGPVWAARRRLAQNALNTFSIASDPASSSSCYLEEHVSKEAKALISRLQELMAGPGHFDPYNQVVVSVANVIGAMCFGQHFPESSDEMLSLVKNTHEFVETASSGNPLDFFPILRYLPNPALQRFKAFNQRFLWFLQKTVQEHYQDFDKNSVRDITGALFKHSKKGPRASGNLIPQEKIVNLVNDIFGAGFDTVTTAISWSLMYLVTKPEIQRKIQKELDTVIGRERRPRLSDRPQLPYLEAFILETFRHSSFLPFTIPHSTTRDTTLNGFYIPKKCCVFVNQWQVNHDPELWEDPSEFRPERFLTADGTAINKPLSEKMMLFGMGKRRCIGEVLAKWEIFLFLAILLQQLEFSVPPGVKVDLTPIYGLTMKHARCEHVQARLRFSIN

hERG (KCNH2) = hERG (KCNH2) (Homo sapiens, UniProt Q12809); test: Inhibition of human ERG at 10 uM by fluorescence polarization assay relative to control
hERG (KCNH2), sequence (Q12809 whole entry): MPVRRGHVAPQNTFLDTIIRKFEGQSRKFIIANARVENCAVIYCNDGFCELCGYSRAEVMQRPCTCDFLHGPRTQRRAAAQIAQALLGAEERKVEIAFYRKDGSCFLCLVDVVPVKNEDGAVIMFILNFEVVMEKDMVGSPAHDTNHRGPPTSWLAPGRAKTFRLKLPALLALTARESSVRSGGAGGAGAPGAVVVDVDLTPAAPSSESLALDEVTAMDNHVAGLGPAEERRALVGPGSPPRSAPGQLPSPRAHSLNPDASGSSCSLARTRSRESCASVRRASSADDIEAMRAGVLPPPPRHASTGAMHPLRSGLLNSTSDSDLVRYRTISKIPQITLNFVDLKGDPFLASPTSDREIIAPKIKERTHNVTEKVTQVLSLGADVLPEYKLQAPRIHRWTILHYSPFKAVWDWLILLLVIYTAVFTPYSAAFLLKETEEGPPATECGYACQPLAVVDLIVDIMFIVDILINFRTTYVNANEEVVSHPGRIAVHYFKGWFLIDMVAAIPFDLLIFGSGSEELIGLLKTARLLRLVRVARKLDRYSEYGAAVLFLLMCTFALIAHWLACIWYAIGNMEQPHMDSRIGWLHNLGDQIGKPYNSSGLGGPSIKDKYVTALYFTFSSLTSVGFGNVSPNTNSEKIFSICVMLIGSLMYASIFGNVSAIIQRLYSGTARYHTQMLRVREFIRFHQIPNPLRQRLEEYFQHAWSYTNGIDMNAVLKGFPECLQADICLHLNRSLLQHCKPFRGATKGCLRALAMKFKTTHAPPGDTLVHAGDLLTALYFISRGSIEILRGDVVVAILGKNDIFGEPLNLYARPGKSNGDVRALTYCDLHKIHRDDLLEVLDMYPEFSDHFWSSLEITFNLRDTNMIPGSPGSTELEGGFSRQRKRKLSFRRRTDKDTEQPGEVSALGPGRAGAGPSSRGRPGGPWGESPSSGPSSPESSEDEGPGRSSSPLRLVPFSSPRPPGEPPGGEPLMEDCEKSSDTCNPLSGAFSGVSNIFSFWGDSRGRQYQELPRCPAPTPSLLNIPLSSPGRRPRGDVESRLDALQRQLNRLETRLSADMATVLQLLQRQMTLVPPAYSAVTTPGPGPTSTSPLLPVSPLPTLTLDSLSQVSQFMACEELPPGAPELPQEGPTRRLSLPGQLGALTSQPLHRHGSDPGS

Aurora B = Aurora B (Homo sapiens, UniProt Q96GD4); test: Inhibition of Aurora B (unknown origin) at 10 uM relative to control
Aurora B, sequence (Q96GD4 whole entry): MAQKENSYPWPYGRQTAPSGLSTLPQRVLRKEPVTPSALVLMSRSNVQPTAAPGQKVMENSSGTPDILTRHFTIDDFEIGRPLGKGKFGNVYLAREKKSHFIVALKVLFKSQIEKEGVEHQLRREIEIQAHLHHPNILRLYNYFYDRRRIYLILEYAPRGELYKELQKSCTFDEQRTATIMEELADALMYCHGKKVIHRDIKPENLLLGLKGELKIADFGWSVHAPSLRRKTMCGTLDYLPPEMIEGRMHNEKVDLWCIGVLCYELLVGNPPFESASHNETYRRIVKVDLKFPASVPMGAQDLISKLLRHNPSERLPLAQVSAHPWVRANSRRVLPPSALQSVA

[9] = Cytotoxicity against human U2OS cells assessed as cell growth inhibition at 10 uM after 48 hrs relative to control; format: cell-based

SMILES	inhibition at 10 µM (HDAC6)	inhibition at 10 µM (HDAC4)	inhibition at 10 µM (CYP3A4)	inhibition at 10 µM (CYP2D6)	inhibition at 10 µM (HDAC8)	inhibition at 10 µM (SIRT7)	inhibition at 10 µM (HDAC9)	inhibition [7]	inhibition at 10 µM (CYP2C9)	inhibition at 10 µM (CYP2C19)	inhibition at 10 µM (CYP1A2)	inhibition at 10 µM (Aurora B)	inhibition at 48 h, 10 µM [1]	inhibition at 48 h, 10 µM [2]	inhibition at 24 h, 10 µM [3]	inhibition at 24 h, 10 µM [4]	inhibition at 48 h, 10 µM [5]	inhibition at 24 h, 10 µM [6]	inhibition at 24 h, 10 µM [8]	inhibition at 10 µM (hERG (KCNH2))	other results
CC(C)c1cc(Cc2ccc(OCC(=O)O)cc2)ccc1N	< 50%	< 50%	< 50%	< 50%	< 50%	< 50%	< 50%	< 50%	< 50%	< 50%	< 50%	< 50%	< 50%	< 50%	< 50%	< 50%	< 50%	< 50%	< 50%	< 40%	inhibition at 48 h, 10 µM [9]: < 50%
Cc1cc(OCCN)cc(C)c1Cc1ccc(O)cc1	< 50%	< 50%	51%	51%	< 50%	< 50%	< 50%	< 50%	> 91%	> 91%	51%	< 50%	< 50%	< 50%	< 50%	< 50%	< 50%	< 50%	< 50%	51%	inhibition at 48 h, 10 µM [9]: < 50%
NCCOc1ccc(Cc2ccc(N)cc2)c(C(F)(F)F)c1	< 50%	< 50%	51%	51%	< 50%	< 50%	< 50%	< 50%	> 91%	> 91%	> 91%	< 50%	< 50%	< 50%	< 50%	< 50%	< 50%	< 50%	< 50%	51%	inhibition at 48 h, 10 µM [9]: < 50%
Nc1ccc(Cc2ccc(OCC(=O)O)cc2F)cc1	< 50%	< 50%	< 50%	< 50%	< 50%	< 50%	< 50%	< 50%	51%	< 50%	< 50%	< 50%	< 50%	< 50%	< 50%	< 50%	< 50%	< 50%	< 50%	> 91%	inhibition at 48 h, 10 µM [9]: < 50%

The next lines start with results.

inhibition at 10 µM (HDAC6)	inhibition at 10 µM (HDAC4)	inhibition at 10 µM (CYP3A4)	inhibition at 10 µM (CYP2D6)	inhibition at 10 µM (HDAC8)	inhibition at 10 µM (SIRT7)	inhibition at 10 µM (HDAC9)	inhibition [7]	inhibition at 10 µM (CYP2C9)	inhibition at 10 µM (CYP2C19)	inhibition at 10 µM (CYP1A2)	inhibition at 10 µM (Aurora B)	SMILES	inhibition at 48 h, 10 µM [1]	inhibition at 48 h, 10 µM [2]	inhibition at 24 h, 10 µM [3]	inhibition at 24 h, 10 µM [4]	inhibition at 48 h, 10 µM [5]	inhibition at 24 h, 10 µM [6]	inhibition at 24 h, 10 µM [8]	inhibition at 10 µM (hERG (KCNH2))	other results
< 50%	< 50%	> 91%	51%	< 50%	< 50%	< 50%	< 50%	> 91%	> 91%	51%	< 50%	CCNc1ccc(Cc2c(C)cc(OCC(=O)O)cc2C)cc1C(C)C	< 50%	< 50%	< 50%	< 50%	< 50%	< 50%	< 50%	51%	inhibition at 48 h, 10 µM [9]: < 50%
< 50%	< 50%	> 91%	51%	< 50%	< 50%	< 50%	< 50%	> 91%	> 91%	> 91%	< 50%	CCNc1ccc(Cc2ccc(OCC(=O)O)cc2)cc1C(C)C	51%	< 50%	< 50%	65%	< 50%	51%	< 50%	> 91%	inhibition at 48 h, 10 µM [9]: < 50%
